Results from the supplement of paper PMC10307832.

Tests used:
Experiment in all cases: relative viability (nuclei count vs DMSO), 5 days (fraction); higher = more cells survive
[1] = compound: Nc1nc2[nH]cc(CCc3ccc(C(=O)N[C@@H](CCC(=O)O)C(=O)O)cc3)c2c(=O)[nH]1 [Pemetrexed] + COc1cccc2cc(-c3nc([C@H]4CC[C@H](C(=O)O)CC4)n4ncnc(N)c34)[nH]c12 [OSI-027] (partner 0.5 µM)
Procedure, shortened: (§1)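 Lung cancer cell lines were pin-tool dosed in 1536-well plates on the day after seeding, with either a lone drug or a fixed anchor-drug dose plus five library-drug doses (not always all listed) in √10 steps. Nuclei were counted on 4× images after 5 days. Relative viability is the ratio of treated-well to vehicle-well nuclei counts, with each value a median of duplicate plates.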

[2] = compound: CC[C@H](Nc1ncnc2[nH]cnc12)c1nc2cccc(F)c2c(=O)n1-c1ccccc1 [Idelalisib] + N=C(N)NC(=N)NCCc1ccccc1 [Phenformin] (partner 250 µM)
Procedure, shortened: as §1

[3] = compound: CC[C@H](Nc1ncnc2[nH]cnc12)c1nc2cccc(F)c2c(=O)n1-c1ccccc1 [Idelalisib] + C[C@]1(O)C[C@@H](c2nc(-c3ccc4ccc(-c5ccccc5)nc4c3)c3c(N)nccn32)C1 [Linsitinib] (partner 1 µM)
Procedure, shortened: as §1

[4] = compound: Nc1nc2[nH]cc(CCc3ccc(C(=O)N[C@@H](CCC(=O)O)C(=O)O)cc3)c2c(=O)[nH]1 [Pemetrexed] + CC(=O)c1c(C)c2cnc(Nc3ccc(N4CCNCC4)cn3)nc2n(C2CCCC2)c1=O [Palbociclib] (partner 0.5 µM)
Procedure, shortened: as §1

| Cell Line | relative viability ([1]; first compound 0.002 µM) | relative viability ([1]; first compound 0.006325 µM) | relative viability ([1]; first compound 0.02 µM) | relative viability ([1]; first compound 0.06325 µM) | relative viability ([1]; first compound 0.2 µM) | relative viability ([2]; first compound 0.04 µM) | relative viability ([2]; first compound 0.1265 µM) | relative viability ([2]; first compound 1.265 µM) | relative viability ([2]; first compound 4 µM) | relative viability ([3]; first compound 0.04 µM) | relative viability ([3]; first compound 0.1265 µM) | relative viability ([3]; first compound 0.4 µM) | relative viability ([3]; first compound 1.265 µM) | relative viability ([3]; first compound 4 µM) | relative viability ([4]; first compound 0.002 µM) | relative viability ([4]; first compound 0.006325 µM) | relative viability ([4]; first compound 0.02 µM) | relative viability ([4]; first compound 0.06325 µM) | relative viability ([4]; first compound 0.2 µM) | relative viability ([2]; first compound 0.4 µM) |
| --- | --- | --- | --- | --- | --- | --- | --- | --- | --- | --- | --- | --- | --- | --- | --- | --- | --- | --- | --- | --- |
| NCI-H727 | 0.568 | 0.668 | 0.587 | 0.692 | 0.752 | 0.582 | 0.56 | 0.607 | 0.448 | 0.318 | 0.296 | 0.281 | 0.402 | 0.267 | 0.721 | 0.692 | 0.638 | 0.633 | 0.613 | – |
| NCI-H1993 | 0.609 | 0.524 | 0.503 | 0.504 | 0.585 | 0.57 | 0.484 | 0.59 | 0.486 | 0.824 | 0.673 | 0.662 | 0.756 | 0.66 | 1.1 | 0.605 | 0.635 | 0.727 | 0.554 | 0.554 |
| EMC-BAC-2 | 0.352 | 0.338 | 0.4 | 0.372 | 0.363 | 0.564 | 0.517 | 0.506 | 0.524 | 0.868 | 0.8 | 0.757 | 0.818 | 0.748 | 0.51 | 0.461 | 0.543 | 0.493 | 0.466 | 0.478 |
| NCI-H2087 | 0.55 | 0.512 | 0.538 | 0.589 | 0.524 | 0.515 | 0.494 | 0.5 | 0.326 | 0.937 | 1.04 | 1.09 | 1.06 | 0.728 | 0.161 | 0.221 | 0.245 | 0.217 | 0.214 | 0.36 |
| NCI-H441 | 0.63 | 0.504 | 0.574 | 0.431 | 0.368 | 0.803 | 0.919 | 0.885 | 0.898 | 0.43 | 0.437 | – | 0.438 | 0.41 | 0.212 | 0.229 | 0.211 | 0.18 | 0.204 | 0.639 |
| LXF-289 | 0.775 | 0.759 | 0.909 | 0.76 | 0.744 | 0.506 | 0.518 | 0.534 | 0.496 | 1 | 0.978 | 0.938 | 1.07 | 0.978 | 0.593 | 0.623 | 0.589 | 0.594 | 0.557 | 0.46 |
| NCI-H661 | 0.782 | 0.711 | 0.767 | 0.698 | 0.694 | 0.271 | 0.256 | 0.269 | 0.281 | 0.588 | 0.551 | 0.373 | 0.389 | 0.458 | 0.501 | 0.419 | 0.405 | 0.415 | 0.386 | 0.256 |
